Reference: patent publication US20030206891A1, “Rapamycin-based biological regulation” (ARIAD Gene Therapeutics, Inc., priority 1995, published 2003)

Tests used:
[1] = biological target: Lex-FKBP and Lex-FRAP proteins (Homo sapiens, UniProt P42345+P62942); experiment: Gel mobility shift assay of rapamycin-dependent DNA binding by Lex-FKBP/Lex-FRAP; format: biochemical; conditions: increasing amounts of rapamycin, FIG. 14 lanes 2-4
[2] = biological target: FRAP (amino acids 2015-2114) displayed on phage with His6-tagged FKBP (Homo sapiens, UniProt P42345+P62942); experiment: Binding enrichment of FRAP display phagemids on His6-flag-FKBP with compound, captured on Ni-NTA agarose; conditions: 1 μM His6-flag-FKBP, 2.5 μl of 100 pM compound in 250 μl, 1 hour
[3] = tested on: transfected HT1080 cells; experiment: Rapamycin-dependent production of hGH in nu/nu mice transplanted with transfected HT1080 cells; format: in vivo
Source text: To transplant transiently transfected cells into mice, 2×10^6 transfected HT1080 cells, were suspended in 100 _l PBS/0.1% BSA/0.1% glucose buffer, and administered into four intramuscular sites (approximately 25 _l per site) on the haunches and flanks of the animals. Control mice received equivalent volume injections of buffer alone.
(§1) The accuracy of the dosing solutions was confirmed by HPLC analysis prior to intravenous administration into the tail veins. […] In addition, other control mice, bearing transfected cells, received only the rapamycin vehicle.
Blood was collected by either anesthetizing or sacrificing mice via CO2 inhalation. Anesthetized mice were used to collect 100 _l of blood by cardiac puncture. The mice were revived and allowed to recover for subsequent blood collections. Sacrificed mice were immediately exsanguinated. Blood samples were allowed to clot for 24 hours, at 4° C., and sera were collected following centrifugation at 1000×g for 15 minutes. Serum hGH was measured by the Boehringer Mannheim non-isotopic sandwich ELISA (Cat No.1 585 878). […] Recommended assay instructions were followed.
Mice were administered transfected HT1080 cells as described above. […] The four remaining doses were given under anesthesia, immediately subsequent to blood collection, at 16, 32, 48, and 64 hours. […]

[4] = tested on: HT1080 cells expressing myristoylated FRAP-FKBP-Fas or (FKBPx2)-Fas chimeras; experiment: Regulated apoptosis of stably transfected HT1080 cells, alamar blue viability; format: cell-based, human
Procedure: HT1080 cells were infected with viral stock and selected with G418.
The media was removed and replaced with 100 μl of media containing 10% alamar blue dye. Plates were incubated as before, and the extent of cell viability assessed periodically by spectrophotometric determination of OD at 570 nm and 600 nm on a microtiter plate reader.

[5] = biological target: T1, FRAP (Homo sapiens, UniProt P42345+P62942); experiment: SEAP reporter assay in HT20-6 cells for binding of rapalog-FKBP complexes to FRAP; format: cell-based; conditions: serial dilutions, 22 hours, FIG. 15
T1 construct: expressed in transfected cells; host or cells: HT20-6 (clone of human HT1080 fibrosarcoma cells)
Procedure: HT20-6 cells were plated in 96-well dishes (1×10^4 cells/well) and 200 _l medium containing serial dilutions of rapalog was added to each well (in triplicate).

[6] = biological target: T2, FKBP (Homo sapiens, UniProt P62942); experiment: Competitive fluorescence polarization (FP) assay of binding to FKBP with fluoresceinated FK506 probe AP1491
T2 construct: made in house
Procedure: Serial 10-fold dilutions of each analog were prepared in 100% ethanol in glass vials and stored on ice. All other manipulations were performed at room temperature.
The plates was stored covered in the dark for approximately 30 min to permit equilibration and then the fluorescence polarization of the sample in each well read on a Jolley FPM-2 FP plate reader (Jolley Consulting and Research, Inc., Grayslake, Ill.) in accordance with the manufacturer's recommendations. The mean polarization (mP units) for each competitor concentration was usually converted to % total binding by reference to the control values and plotted (y) vs. log molar final concentration of competitor (x). Non-linear least square analysis was used to fit the curve and extract the IC50 using the following equation:
y=M1+(M4−M1)/(1+exp(M2*(M3−x)))
where M3 is the IC50. For incomplete curves the IC50 was determined by interpolation.
The affinity of the rapalogs for FKBP was assayed as described for C24 rapalogs in section A above, using competitive FP.

[7] = Pharmacokinetics in nu/nu mice after intravenous administration; format: in vivo
Source text: as §1

[8] = C7 rapalog experiment, competitive FP
[9] = rapamycin C24 oximes, competitive FP vs AP1491 probe, recombinant FKBP

T2 sequence (P62942 whole entry): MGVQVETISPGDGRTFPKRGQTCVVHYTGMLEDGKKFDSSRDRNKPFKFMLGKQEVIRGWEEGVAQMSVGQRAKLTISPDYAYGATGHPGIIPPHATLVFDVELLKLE
Chain of FRAP (amino acids 2015-2114) displayed on phage with His6-tagged FKBP (P42345 2015-2114): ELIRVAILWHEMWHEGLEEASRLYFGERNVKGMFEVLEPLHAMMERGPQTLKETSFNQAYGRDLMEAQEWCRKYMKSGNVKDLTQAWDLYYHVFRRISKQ
Chain of FRAP (amino acids 2015-2114) displayed on phage with His6-tagged FKBP (P62942 with tags, fused parts or gaps): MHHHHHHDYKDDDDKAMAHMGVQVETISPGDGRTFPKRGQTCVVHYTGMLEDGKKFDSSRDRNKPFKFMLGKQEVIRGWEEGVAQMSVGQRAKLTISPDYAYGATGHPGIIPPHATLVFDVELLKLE
T1 sequence (P42345 2025-2113): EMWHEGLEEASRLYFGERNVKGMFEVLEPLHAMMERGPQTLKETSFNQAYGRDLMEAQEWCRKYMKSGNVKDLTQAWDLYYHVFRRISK
T1 sequence (P62942 2-108): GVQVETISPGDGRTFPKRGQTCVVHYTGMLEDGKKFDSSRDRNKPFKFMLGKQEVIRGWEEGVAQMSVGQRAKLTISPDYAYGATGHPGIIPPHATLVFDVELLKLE
Chain of Lex-FKBP and Lex-FRAP proteins (P62942 2-108): as above
Chain of Lex-FKBP and Lex-FRAP proteins (P42345 2025-2113): as the sequence (P42345 2025-2113) above

## CO[C@H]1C[C@@H]2CC[C@@H](C)[C@@](O)(O2)C(=O)C(=O)N2CCCC[C@H]2C(=O)O[C@H]([C@H](C)C[C@@H]2CC[C@@H](O)[C@H](OC)C2)CC(=O)[C@H](C)/C=C(\C)[C@@H](O)[C@@H](OC)C(=O)[C@H](C)C[C@H](C)/C=C/C=C/C=C/1C [rapamycin, Rapamycin]
[1]
  formation of specific protein-DNA complex: concomitant appearance of a specific complex
[2]
  enrichment of FRAP phage compared to the starting mixture: 271 fold
[3]; 0.01-10.0 mg/kg i.v., 17 hours after administration, FIG. 6
  serum hGH production vs dose: dose-responsive production of hGH
[3]; single 10.0 mg/kg i.v. dose, FIG. 7
  time of peak serum hGH after treatment: peaked at eight hours
[4]; FIG. 13(c)
  effect on survival of cells not expressing mixed chimeric proteins: minimal effects
[4]; with 50 ng/ml actinomycin D, about 20 hours, FIG. 13(a),(b)
  survival of cells stably transfected with M30 and M31-expressing constructs: potently reduced

## CO[C@@H]1CC(C[C@@H](C)C2CC(=O)[C@H](C)/C=C(\C)[C@@H](O)[C@@H](OC)C(=O)[C@H](C)C[C@H](C)/C=C/C=C/C=C(\C)[C@@H](OC(C)C)C[C@@H]3CC[C@@H](C)[C@@](O)(O3)C(=O)C(=O)N3CCCC[C@H]3C(=O)O2)CC[C@H]1O (stereo partly drawn) [AP1700, 7S-isopropoxyrapamycin]
[5]
  FRAP affinity as indicated by SEAP production: modest reduction in FRAP affinity
[6]; C7 rapalog experiment
  fold loss in affinity (=IC50/IC50 of rapamycin): 2.5
[6]; [8]
  IC50: 17.8 nM

## CCC(C)(C)C(=O)C(=O)N1CCCCC1C(=O)O[C@H](CCc1ccc(OC)c(OC)c1)c1cccc(OCC(=O)NCCOCCNC(=O)COc2cccc([C@@H](CCc3ccc(OC)c(OC)c3)OC(=O)C3CCCCN3C(=O)C(=O)C(C)(C)CC)c2)c1 (stereo partly drawn) [AP1428]
[4]; FIG. 13(c)
  extent of cell death of cells expressing a myristoylated (FKBPx2)-Fas construct, relative to rapamycin on M30/M31 cells: comparable

## COC1CC2CCC(C)C(O)(O2)C(=O)C(=O)N2CCCCC2C(=O)OC(C(C)CC2CCC(O)C(OC)C2)CC(=NOCC(=O)O)C(C)C=C(C)C(O)C(OC)C(=O)C(C)CC(C)C=CC=CC=C1C (stereo not drawn) [AP1686, Rapamycin (E and Z)-24-(O-carboxymethyloxime)]
[6]; C24 oxime experiment
  fold loss in affinity (=IC50/IC50 of rapamycin): 1620
[6]; [9]
  IC50: 16200 nM

## C=CC[C@@H]1/C=C(\C)C[C@H](C)C[C@H](OC)[C@H]2O[C@@](O)(C(=O)C(=O)N3CCCC[C@H]3C(=O)O[C@H](/C(C)=C/[C@@H]3CC[C@@H](O)[C@H](OC)C3)[C@H](C)[C@@H](O)CC1=O)[C@H](C)C[C@@H]2OC [FK506]
[2]
  enrichment of FRAP phage compared to the starting mixture: 2.4 fold

## COC1CC(CC(C)C2CC(=O)C(C)C=C(C)C(O)C(OC)C(=O)C(C)CC(C)C=CC=CC=C(C)C(c3c[nH]c4ccccc34)CC3CCC(C)C(O)(O3)C(=O)C(=O)N3CCCCC3C(=O)O2)CCC1O (stereo not drawn) [AP1702, 7S-(3-indolyl)rapamycin]
[5]
  FRAP affinity as indicated by SEAP production: almost completely abolish SEAP expression
[6]; C7 rapalog experiment
  fold loss in affinity (=IC50/IC50 of rapamycin): 3.0
[6]; [8]
  IC50: 24.5 nM

## COC1CC2CCC(C)C(O)(O2)C(=O)C(=O)N2CCCCC2C(=O)OC(C(C)CC2CCC(O)C(OC)C2)CC(=NOCC(N)=O)C(C)C=C(C)C(O)C(OC)C(=O)C(C)CC(C)C=CC=CC=C1C (single isomer, unassigned) [AP1730, Rapamycin (E and Z)-24-(O-carboxamidomethyloxime)]
[6]; C24 oxime experiment
  fold loss in affinity (=IC50/IC50 of rapamycin): 40.5
[6]; [9]
  IC50: 320 nM

## COC1CC2CCC(C)C(O)(O2)C(=O)C(=O)N2CCCCC2C(=O)OC(C(C)CC2CCC(O)C(OC)C2)CC(=NOCC(=O)O)C(C)C=C(C)C(O)C(OC)C(=O)C(C)CC(C)C=CC=CC=C1C (stereo not drawn) [AP1687, Rapamycin (E and Z)-24-(O-carboxymethyloxime)]
[6]; C24 oxime experiment
  fold loss in affinity (=IC50/IC50 of rapamycin): 813

## C14-desoxo-rapamycin [reference compound]
[6]; C7 rapalog experiment
  fold loss in affinity (=IC50/IC50 of rapamycin): 20.8
[6]; C24 oxime experiment
  fold loss in affinity (=IC50/IC50 of rapamycin): 18.6

## COC1CC2CCC(C)C(O)(O2)C(=O)C(=O)N2CCCCC2C(=O)OC(C(C)CC2CCC(O)C(OC)C2)CC(=NOCC(N)=O)C(C)C=C(C)C(O)C(OC)C(=O)C(C)CC(C)C=CC=CC=C1C (single isomer, unassigned) [AP1729, Rapamycin (E and Z)-24-(O-carboxamidomethyloxime)]
[6]; C24 oxime experiment
  fold loss in affinity (=IC50/IC50 of rapamycin): 304
[6]; [9]
  IC50: 2400 nM

## hGH: human growth hormone secreted by the engineered cells (reporter gene product)
[7]
  half-life of clearance from the circulation: less than four minutes
